Assay results from paper PMC12339982 (Nature Communications, 2025).
Changes are numbered by the printed parent chain.

Experiments:
[1] = target: T1, TauT^WT and variants (Homo sapiens, UniProt P31641, E406C); experiment: [3H]γ-aminobutyric acid uptake by TauT^WT and variants in HEK293T cells; type: cell-based; details: mutation Glu406Cys
T1 sequence (P31641 1-620 E406C): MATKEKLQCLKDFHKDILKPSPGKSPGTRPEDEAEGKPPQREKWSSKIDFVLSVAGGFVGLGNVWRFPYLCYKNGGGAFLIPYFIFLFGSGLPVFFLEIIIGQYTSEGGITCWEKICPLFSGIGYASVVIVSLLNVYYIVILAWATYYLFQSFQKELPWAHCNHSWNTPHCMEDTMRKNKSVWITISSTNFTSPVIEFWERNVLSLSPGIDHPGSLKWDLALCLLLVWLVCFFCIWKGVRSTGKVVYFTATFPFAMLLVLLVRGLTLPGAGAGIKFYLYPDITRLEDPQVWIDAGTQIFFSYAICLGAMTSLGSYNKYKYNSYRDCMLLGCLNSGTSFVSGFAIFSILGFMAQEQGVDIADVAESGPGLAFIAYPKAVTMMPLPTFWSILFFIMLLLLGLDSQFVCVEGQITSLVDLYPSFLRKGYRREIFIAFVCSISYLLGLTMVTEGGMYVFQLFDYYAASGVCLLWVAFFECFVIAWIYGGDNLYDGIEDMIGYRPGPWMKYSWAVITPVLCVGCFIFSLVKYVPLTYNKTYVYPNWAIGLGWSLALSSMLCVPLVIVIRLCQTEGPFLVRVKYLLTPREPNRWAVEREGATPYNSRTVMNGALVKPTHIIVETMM

[2] = system: TauT^WT and variants; experiment: as above; type: cell-based, human; details: amino acid substitutions in Gly57, Phe58, Leu306
[3] = target: T2, human wild type TauT (TauT^WT) (Homo sapiens, UniProt P31641); experiment: [3H]taurine uptake inhibition assay in HEK293T cells overexpressing TauT^WT; type: cell-based; details: result in words
T2 sequence (P31641 1-620): T1 sequence (P31641 1-620 E406C) with C406E

[4] = target: T3, TauT^WT and variants (Homo sapiens, UniProt P31641, L134C); experiment: [3H]taurine uptake; type: cell-based; details: mutation Leu134Cys
T3 sequence (P31641 1-620 L134C): T1 sequence (P31641 1-620 E406C) with L134C, C406E

[5] = system: TauT^WT and variants; experiment: [3H]taurine uptake; type: cell-based, human
[6] = target: T4, TauT F58A mutant (Homo sapiens, UniProt P31641, F58A); experiment: MST binding, TauT F58A; details: mean ± s.e.m., n=3
T4 sequence (P31641 1-620 F58A): T1 sequence (P31641 1-620 E406C) with F58A, C406E

With `NCCCC(=O)O` [GABA, γ-aminobutyric acid] the “transport activity of GABA” value [1] was “significant increase in the transport activity”, the “transport activity for GABA” value [2] was “decrease in transport activity” and the “inhibition of the uptake activity of TauT” value [3] was “potent inhibitory effects”.

In the case of `[H]/N=C(/N)NCC(=O)O` [GAA, guanidinoacetate], the “inhibition of the uptake activity of TauT” value [3] is reported as “potent inhibitory effects”.

With `NCCS(=O)(=O)O` [Taurine, taurine] the “transport activity of taurine” value [4] was “significantly lower transport activity”, the taurine transport activity ([5]; Asn63, Ser301, Asn333 substituted with alanine or aspartate (Na1 site)) was “complete loss of function” and the “transport activity for taurine” value ([5]; amino acid substitutions in Gly57, Phe58, Leu306) was “decrease in transport activity”. The taurine transport activity ([5]; mutations in Asp401 and Ser402 (Na2 site)) was “weaken the substrate transport function” and the “Kd (MST)” value [6] was “reduced the taurine binding to varying extents”.
